Assay results as given in patent US10927146B2, “Peptidyl ketoamides as inhibitors of rhomboid proteases” (priority 2017, dated 2021).
“Also recorded” adds a separate entry of the source.

How the values were obtained:
[1] = molecular target: model rhomboid protease GlpG (Escherichia coli, UniProt P09391); assay: In vitro inhibition of rhomboid protease GlpG (IC50 and Ki, as described in Ticha et al., 2017); assay type: biochemical, E. coli; settings: for Ki: read-out: Ki Range
From the text: The in vivo activity of the compounds against GlpG according to the invention is in the low nanomolar range (FIG. 1), which is up to three orders of magnitude better than any other currently used rhomboid inhibitors. The co-crystal structures of these compounds with rhomboid protease (FIG. 2) show their mode of binding into the active site of rhomboid. Without wishing to be bound by such a theory, it appears that the ketoamide warhead covalently bonds to the catalytic serine, and extensively hydrogen bonds throughout the active site. The tail at the ketoamide nitrogen interacts with the S2′ pocket of rhomboid, engaging in a number of van der Waals contacts.

[2] = system: Plasmodium falciparum rhomboid 4 (PfROM4); assay: PfROM4 cell culture assay: shedding of EBA175 in transfected HEK293ET cells; assay type: cell-based; settings: HEK293ET cells transfected with PfROM4 and substrate EBA175; approximate, FIG. 3
From the text: (A) HEK293ET cells were transfected with plasmids encoding PfROM4 and its substrate EBA175, and the shedding of EBA175 by PfROM4 into the medium under various concentrations of Compound 16 was quantitated by near-infrared fluorescence detected Western blotting. (B) Dose-response analysis of PfROM4 inhibition by Compound 16.

Sequence of model rhomboid protease GlpG (P09391 whole entry): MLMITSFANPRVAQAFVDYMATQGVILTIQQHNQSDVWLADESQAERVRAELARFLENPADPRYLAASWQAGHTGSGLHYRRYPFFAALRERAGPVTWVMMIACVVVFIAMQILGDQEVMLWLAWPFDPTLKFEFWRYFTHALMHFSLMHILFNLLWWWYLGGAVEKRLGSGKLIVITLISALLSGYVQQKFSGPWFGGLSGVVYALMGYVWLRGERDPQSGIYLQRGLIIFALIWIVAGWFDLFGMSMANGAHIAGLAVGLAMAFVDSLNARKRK

In the case of `CC(=O)C(=O)[C@H](CCCNC(=N)N)NC(=O)[C@@H](NC(=O)[C@H](CCCNC(=N)N)NC(=O)[C@H](Cc1cnc[nH]1)NN[C@@H](C)C(=O)C(=O)NCCCCc1ccccc1)C(C)C` [Compound 11], the Ki [1] is reported as 10 to 100 nM.

With `CC(=O)C(=O)[C@H](CCCNC(=N)N)NC(=O)[C@@H](NC(=O)[C@H](Cc1c[nH]c2ccccc12)NC(=O)[C@H](Cc1cnc[nH]1)NN[C@@H](C)C(=O)C(=O)NCCCCc1ccccc1)C(C)C` [Compound 16] the “IC50 of PfROM4 inhibition” value [2] was “micro- to submicromolar range; also recorded: micromolar to submicromolar concentrations”.

Compound `CC(=O)C(=O)[C@H](CCCNC(=N)N)NC(=O)[C@@H](NC(=O)[C@H](CCCNC(=N)N)NC(=O)[C@H](Cc1cnc[nH]1)NN[C@@H](C)C(=O)C(=O)NCCc1ccccc1)C(C)C` [Compound 9] has a Ki [1] of 10 to 100 nM.

In the case of `CC(=O)C(=O)[C@H](CCCNC(=N)N)NC(=O)[C@@H](NC(=O)[C@H](CCCNC(=N)N)NC(=O)[C@H](Cc1cnc[nH]1)NN[C@@H](C)C(=O)C(=O)NCc1cc(C)ccc1C)C(C)C` [Compound 10], the Ki [1] is reported as 10 to 100 nM.

For `CC(=O)C(=O)[C@@H](NC(=O)[C@H](CCCNC(=N)N)NC(=O)[C@H](Cc1cnc[nH]1)NN[C@@H](C)C(=O)C(=O)NCCc1ccccc1)C(C)C` [Compound 12], the IC50 [1] was 550 nM.
